# From patent US12139520B2 (priority 2020, dated 2024)
# Bridge positions count the residues as written; N and C are the ends. Square brackets hold non-standard residues; d marks the D form. Peptide text beside a SMILES is read from it. Hyp = O=C(O)[C@@H]1C[C@@H](O)CN1; Cit = NC(=O)NCCC[C@H](N)C(=O)O
# Experiment: Physical stability of peptide analogues (Thioflavin T fibrillation)
# Type: physicochemical
# Conditions: maximum ThT signal normalized between hAMY maximum and buffer background; 40° C., shaking, four days; pH 7 per table title
# Procedure: General Protocols for Determination of Physical Stability of Peptide Analogues
# Peptides were dissolved in buffers (50 mM sodium acetate at pH 4 or 50 mM sodium phosphate at pH 7) and incubated for one hour. The samples were then divided into two replicates of 80 μl in a black 384 well plate (μ-clear, Greiner Bio-One) and mixed with Thioflavin T (ThT) to a final concentration of 4 μM. The plate was sealed and placed in a plate reader (CLARIOstar, BMG) where the temperature was set at 40° C. during the course of the experiment. The samples were further stressed by shaking the plate at 700 rpm (linear) for five minutes before every measurement. The fluorescence was measured every 10 min for four days by exciting the ThT at 450 nm and measuring the emission at 480 nm. For each peptide, the ThT signal over time was smoothened using Local Polynomial Regression fitting (LOESS) as implemented in the statistical programming environment R. For the smoothened data, the maximum ThT signal was normalized in percent between the maximum ThT signal for hAMY and the buffer background.
row,SMILES,Max ThT signal (%)
1,CC[C@H](C)[C@H](NC(=O)[C@H](CCC(N)=O)NC(=O)[C@H](Cc1c[nH]cn1)NC(=O)[C@H](C)NC(=O)[C@H](CC(C)C)NC(=O)[C@H](CCCNC(=N)N)NC(=O)[C@H](CCC(N)=O)NC(=O)[C@@H](NC(=O)[C@@H](NC(=O)[C@@H]1CSSC[C@H](NC(=O)CN)C(=O)N[C@@H](CCCNC(=N)N)C(=O)N[C@@H]([C@@H](C)O)C(=O)NCC(=O)N[C@@H]([C@@H](C)O)C(=O)N1)[C@@H](C)O)C(C)C)C(=O)N[C@@H](Cc1ccc(O)cc1)C(=O)N[C@@H](CCC(N)=O)C(=O)N[C@@H](Cc1ccccc1)C(=O)N[C@H](C(=O)N[C@@H](CC(=O)O)C(=O)N[C@@H](CCCCN)C(=O)N[C@@H](Cc1ccccc1)C(=O)N[C@@H](CCCCN)C(=O)N[C@@H](CC(=O)O)C(=O)N[C@@H](CC(N)=O)C(=O)N[C@H](C(=O)N[C@@H](C)C(=O)N1CCC[C@H]1C(=O)N[C@@H](CCCNC(=N)N)C(=O)N[C@@H](CO)C(=O)N[C@@H](CCCCN)C(=O)N[C@H](C(=O)N[C@@H](CO)C(=O)N1CCC[C@H]1C(=O)N[C@@H](CCC(N)=O)C(=O)N[C@H](C(=O)N[C@@H](C)C(N)=O)[C@@H](C)O)[C@@H](C)CC)C(C)C)[C@@H](C)O [compound 241] (H-GCRTGTCTVQRLAHQIYQFTDKFKDNVAPRSKISPQTA-NH2; disulfide 2-7; N-terminus assumed),0.900
2,CC[C@H](C)[C@H](NC(=O)[C@H](CCC(N)=O)NC(=O)[C@H](Cc1c[nH]cn1)NC(=O)[C@H](C)NC(=O)[C@H](CC(C)C)NC(=O)[C@H](CCCNC(=N)N)NC(=O)[C@H](CCC(N)=O)NC(=O)[C@@H](NC(=O)[C@@H](NC(=O)[C@@H]1CSSC[C@H](NC(=O)CN)C(=O)N[C@@H](CCCNC(=N)N)C(=O)N[C@@H]([C@@H](C)O)C(=O)NCC(=O)N[C@@H]([C@@H](C)O)C(=O)N1)[C@@H](C)O)C(C)C)C(=O)N[C@@H](Cc1ccc(O)cc1)C(=O)N[C@@H](CCC(N)=O)C(=O)N[C@@H](Cc1ccccc1)C(=O)N[C@H](C(=O)N[C@@H](CC(=O)O)C(=O)N[C@@H](CCCCN)C(=O)N[C@@H](CC(=O)O)C(=O)N[C@@H](CCCCN)C(=O)N[C@@H](CC(=O)O)C(=O)N[C@@H](CC(N)=O)C(=O)N[C@H](C(=O)N[C@@H](C)C(=O)N1CCC[C@H]1C(=O)N[C@@H](CCCNC(=N)N)C(=O)N[C@H](C(=O)N[C@@H](CC(N)=O)C(=O)N[C@H](C(=O)N[C@@H](CO)C(=O)N1CCC[C@H]1C(=O)N[C@@H](CCC(N)=O)C(=O)NCC(=O)N[C@@H](Cc1ccc(O)cc1)C(N)=O)[C@@H](C)CC)[C@@H](C)O)C(C)C)[C@@H](C)O [compound 199] (H-GCRTGTCTVQRLAHQIYQFTDKDKDNVAPRTNISPQGY-NH2; disulfide 2-7; N-terminus assumed),8.900
3,CC[C@H](C)[C@H](NC(=O)[C@H](C)NC(=O)CNC(=O)[C@H](CC(=O)O)NC(=O)[C@H](CCCCN)NC(=O)[C@H](CC(=O)O)NC(=O)[C@@H](NC(=O)[C@H](Cc1ccccc1)NC(=O)[C@H](CCC(N)=O)NC(=O)[C@H](Cc1ccc(O)cc1)NC(=O)[C@H](CC(C)C)NC(=O)[C@H](Cc1ccccc1)NC(=O)[C@H](Cc1c[nH]cn1)NC(=O)[C@H](C)NC(=O)[C@H](CC(C)C)NC(=O)[C@H](CCCNC(N)=O)NC(=O)[C@H](CCC(N)=O)NC(=O)[C@@H](NC(=O)[C@@H](NC(=O)[C@@H]1CSSC[C@H](NC(=O)CN)C(=O)N[C@@H](CCCNC(=N)N)C(=O)N[C@@H](Cc2ccccc2)C(=O)NCC(=O)N[C@@H]([C@@H](C)O)C(=O)N1)[C@@H](C)O)C(C)C)[C@@H](C)O)C(=O)N[C@@H](C)C(=O)N1CCC[C@H]1C(=O)N[C@@H](CCCNC(=N)N)C(=O)N[C@H](C(=O)N[C@@H](CCCCN)C(=O)N[C@H](C(=O)NCC(=O)N[C@@H](CO)C(=O)N[C@@H](CCC(N)=O)C(=O)NCC(=O)N[C@@H](Cc1ccc(O)cc1)C(N)=O)[C@@H](C)CC)[C@@H](C)O [compound 282] (H-GCRFGTCTVQ[Cit]LAHFLYQFTDKDGAIAPRTKIGSQGY-NH2; disulfide 2-7; N-terminus assumed),4.700

# The next lines start with the values.
row,Max ThT signal (%),SMILES
1,2.200,CC[C@H](C)[C@H](NC(=O)[C@H](CCC(N)=O)NC(=O)[C@H](Cc1c[nH]cn1)NC(=O)[C@H](C)NC(=O)[C@H](CC(C)C)NC(=O)[C@H](CCCNC(=N)N)NC(=O)[C@H](CCC(N)=O)NC(=O)[C@@H](NC(=O)[C@@H](NC(=O)[C@@H]1CSSC[C@H](NC(=O)CN)C(=O)N[C@@H](CCCNC(=N)N)C(=O)N[C@@H]([C@@H](C)O)C(=O)NCC(=O)N[C@@H]([C@@H](C)O)C(=O)N1)[C@@H](C)O)C(C)C)C(=O)N[C@@H](Cc1ccc(O)cc1)C(=O)N[C@@H](CCC(N)=O)C(=O)N[C@@H](Cc1ccccc1)C(=O)N[C@H](C(=O)N[C@@H](CC(=O)O)C(=O)N[C@@H](CCCCN)C(=O)N[C@@H](CC(=O)O)C(=O)N[C@@H](CCCCN)C(=O)N[C@@H](CC(=O)O)C(=O)N[C@@H](CC(N)=O)C(=O)N[C@H](C(=O)N[C@@H](C)C(=O)N1CCC[C@H]1C(=O)N[C@@H](CCCNC(=N)N)C(=O)N[C@@H](CO)C(=O)N[C@@H](CCCCN)C(=O)N[C@H](C(=O)N[C@@H](CO)C(=O)N1CCC[C@H]1C(=O)N[C@@H](CC(N)=O)C(=O)NCC(=O)N1C[C@H](O)C[C@H]1C(N)=O)C(C)C)C(C)C)[C@@H](C)O [compound 204] (H-GCRTGTCTVQRLAHQIYQFTDKDKDNVAPRSKVSPNG[Hyp]-NH2; disulfide 2-7; N-terminus assumed)
2,6.000,CC[C@H](C)[C@H](NC(=O)[C@H](CCC(N)=O)NC(=O)[C@H](Cc1c[nH]cn1)NC(=O)[C@H](C)NC(=O)[C@H](CC(C)C)NC(=O)[C@H](CCCNC(=N)N)NC(=O)[C@H](CCC(N)=O)NC(=O)[C@@H](NC(=O)[C@@H](NC(=O)[C@@H]1CSSC[C@H](NC(=O)CN)C(=O)N[C@@H](CCCNC(=N)N)C(=O)N[C@@H]([C@@H](C)O)C(=O)NCC(=O)N[C@@H]([C@@H](C)O)C(=O)N1)[C@@H](C)O)C(C)C)C(=O)N[C@@H](Cc1ccc(O)cc1)C(=O)N[C@@H](CCC(N)=O)C(=O)N[C@@H](Cc1ccccc1)C(=O)N[C@H](C(=O)N[C@@H](CC(=O)O)C(=O)N[C@@H](CCCCN)C(=O)N[C@@H](CC(=O)O)C(=O)N[C@@H](CCCCN)C(=O)N[C@@H](CC(=O)O)C(=O)N[C@@H](CC(N)=O)C(=O)N[C@H](C(=O)N[C@@H](C)C(=O)N1CCC[C@H]1C(=O)N[C@@H](CCCNC(=N)N)C(=O)N[C@H](C(=O)N[C@@H](CCCCN)C(=O)N[C@H](C(=O)N[C@@H](CO)C(=O)N1CCC[C@H]1C(=O)N[C@@H](CCC(N)=O)C(=O)NCC(=O)N1C[C@H](O)C[C@H]1C(N)=O)[C@@H](C)CC)[C@@H](C)O)C(C)C)[C@@H](C)O [compound 189] (H-GCRTGTCTVQRLAHQIYQFTDKDKDNVAPRTKISPQG[Hyp]-NH2; disulfide 2-7; N-terminus assumed)
3,4.200,CC[C@H](C)[C@@H]1NC(=O)[C@H](CCCNC(=N)N)NC(=O)[C@@H](NC(=O)CN)CSSC[C@@H](C(=O)N[C@H](C(=O)N[C@H](C(=O)N[C@@H](CCC(N)=O)C(=O)N[C@@H](CCCNC(=N)N)C(=O)N[C@@H](CC(C)C)C(=O)N[C@@H](C)C(=O)N[C@@H](Cc2c[nH]cn2)C(=O)N[C@@H](CCC(N)=O)C(=O)N[C@H](C(=O)N[C@@H](Cc2ccc(O)cc2)C(=O)N[C@@H](CCC(N)=O)C(=O)N[C@@H](Cc2ccccc2)C(=O)N[C@H](C(=O)N[C@@H](CC(N)=O)C(=O)N[C@@H](CCCCN)C(=O)N[C@@H](CC(=O)O)C(=O)N[C@@H](CCCCN)C(=O)N[C@@H](CC(=O)O)C(=O)N[C@@H](CC(N)=O)C(=O)N[C@H](C(=O)N[C@@H](C)C(=O)N2CCC[C@H]2C(=O)N[C@@H](CCCNC(=N)N)C(=O)N[C@@H](CO)C(=O)N[C@@H](CCCCN)C(=O)N[C@H](C(=O)N[C@@H](CO)C(=O)N2CCC[C@H]2C(=O)N[C@@H](CCC(N)=O)C(=O)N[C@H](C(=O)N2C[C@H](O)C[C@H]2C(N)=O)[C@@H](C)O)[C@@H](C)CC)C(C)C)[C@@H](C)O)[C@@H](C)CC)C(C)C)[C@@H](C)O)NC(=O)[C@H]([C@@H](C)O)NC(=O)CNC1=O [compound 198] (H-GCRIGTCTVQRLAHQIYQFTNKDKDNVAPRSKISPQT[Hyp]-NH2; disulfide 2-7; N-terminus assumed)
4,8.500,CC[C@H](C)[C@H](NC(=O)[C@H](CCC(N)=O)NC(=O)[C@H](Cc1c[nH]cn1)NC(=O)[C@H](C)NC(=O)[C@H](CC(C)C)NC(=O)[C@H](CCCNC(=N)N)NC(=O)[C@H](CCC(N)=O)NC(=O)[C@@H](NC(=O)[C@@H](NC(=O)[C@@H]1CSSC[C@H](NC(=O)CN)C(=O)N[C@@H](CCCNC(=N)N)C(=O)N[C@@H]([C@@H](C)O)C(=O)NCC(=O)N[C@@H]([C@@H](C)O)C(=O)N1)[C@@H](C)O)C(C)C)C(=O)N[C@@H](Cc1c[nH]cn1)C(=O)N[C@@H](CCC(N)=O)C(=O)N[C@@H](Cc1ccccc1)C(=O)N[C@H](C(=O)N[C@@H](CC(N)=O)C(=O)N[C@@H](CCCCN)C(=O)N[C@@H](CC(=O)O)C(=O)N[C@@H](CCCCN)C(=O)N[C@@H](CC(=O)O)C(=O)N[C@@H](CC(N)=O)C(=O)N[C@H](C(=O)N[C@@H](C)C(=O)N1CCC[C@H]1C(=O)N[C@@H](CCCNC(=N)N)C(=O)N[C@@H](CO)C(=O)N[C@@H](CCCCN)C(=O)N[C@H](C(=O)N[C@@H](CO)C(=O)N1CCC[C@H]1C(=O)N[C@@H](CCC(N)=O)C(=O)N[C@H](C(=O)N1C[C@H](O)C[C@H]1C(N)=O)[C@@H](C)O)[C@@H](C)CC)C(C)C)[C@@H](C)O [compound 227] (H-GCRTGTCTVQRLAHQIHQFTNKDKDNVAPRSKISPQT[Hyp]-NH2; disulfide 2-7; N-terminus assumed)
